Laboratory results as given in patent publication US20140186329A1, “POLYPHENOL ANALOGS TO TREAT ISCHEMIA” (priority 2011, published 2014).

Columns and labels:
PC12 cells = experiment: Glucose starvation; type: cell-based; settings: MTT 24 hr
Procedure: (§1) FIG. 5 illustrates pharmacological effects of Baicalein on cultured cells. (A) Trophic factor withdrawal. Primary cortical neurons are prepared from 18-day-old rat embryos, and cultured at low cell density 1×10^6/35 mm dish, in serum containing medium with Baicalein (10-10,000 nM), and viability assayed 2 days later using a live-dead assay. (B) Excitotoxicity assay was done with E14 mouse primary cortical neuron cultures. After 11 days of culture, cells were exposed to 10 μM glutamate for 10 min, followed by the addition of varying concentrations of Baicalein (0.2-5 μM). Cell viability was determined 24 hr later with a standard MTT assay. (C) PC12 cells were glucose-deprived then were incubates in the absence or presence of Baicalein. Cell viability was determined 24 hr later using the MTT assay. (D) RCG-5 nerve cells were treated with 30 μM iodoacetic acid for 2 hr in the presence or absence of 5-25 μM Baicalein. In some experiments, Baicalein was added 2 hr after the ischemic event. Cell survival (%) was measured after 24 hr by the MTT assay. Baicalein added before (□) or 2 hr after ([…]) ischemia. […] When these cells are starved for glucose, there is approximately 70% maximal survival in the presence of NGF. Baicalein promotes over 80% survival (FIG. 5C).

RCG-5 nerve cells = experiment: Chemical ischemia model (IAA) in RCG-5 nerve cells; type: cell-based; settings: 30 μM IAA 2 hr, 5-25 μM, also added 2 hrs after insult
Procedure: as §1

O=c1cc(-c2ccccc2)oc2cc(O)c(O)c(O)c12 [Baicalein, 5,6,7-trihydroxyflavone, reference compound]
survival of glucose-starved cells (PC12 cells): over 80% | prevention of cell death in chemical ischemia model (RCG-5 nerve cells): prevents cell death
